Assay results: ChEMBL document CHEMBL1201862, “PubChem BioAssay data set” (2004)
The source made the active and inactive calls.

What was measured:
[1] = target: T1, Sentrin-specific protease 7 (Homo sapiens, UniProt Q9BQF6); format: functional;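 also: Luminescence-based dose-response confirmation of ultra-high-throughput screening hits, measuring inhibition of SENP7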
T1 sequence (Q9BQF6 whole entry): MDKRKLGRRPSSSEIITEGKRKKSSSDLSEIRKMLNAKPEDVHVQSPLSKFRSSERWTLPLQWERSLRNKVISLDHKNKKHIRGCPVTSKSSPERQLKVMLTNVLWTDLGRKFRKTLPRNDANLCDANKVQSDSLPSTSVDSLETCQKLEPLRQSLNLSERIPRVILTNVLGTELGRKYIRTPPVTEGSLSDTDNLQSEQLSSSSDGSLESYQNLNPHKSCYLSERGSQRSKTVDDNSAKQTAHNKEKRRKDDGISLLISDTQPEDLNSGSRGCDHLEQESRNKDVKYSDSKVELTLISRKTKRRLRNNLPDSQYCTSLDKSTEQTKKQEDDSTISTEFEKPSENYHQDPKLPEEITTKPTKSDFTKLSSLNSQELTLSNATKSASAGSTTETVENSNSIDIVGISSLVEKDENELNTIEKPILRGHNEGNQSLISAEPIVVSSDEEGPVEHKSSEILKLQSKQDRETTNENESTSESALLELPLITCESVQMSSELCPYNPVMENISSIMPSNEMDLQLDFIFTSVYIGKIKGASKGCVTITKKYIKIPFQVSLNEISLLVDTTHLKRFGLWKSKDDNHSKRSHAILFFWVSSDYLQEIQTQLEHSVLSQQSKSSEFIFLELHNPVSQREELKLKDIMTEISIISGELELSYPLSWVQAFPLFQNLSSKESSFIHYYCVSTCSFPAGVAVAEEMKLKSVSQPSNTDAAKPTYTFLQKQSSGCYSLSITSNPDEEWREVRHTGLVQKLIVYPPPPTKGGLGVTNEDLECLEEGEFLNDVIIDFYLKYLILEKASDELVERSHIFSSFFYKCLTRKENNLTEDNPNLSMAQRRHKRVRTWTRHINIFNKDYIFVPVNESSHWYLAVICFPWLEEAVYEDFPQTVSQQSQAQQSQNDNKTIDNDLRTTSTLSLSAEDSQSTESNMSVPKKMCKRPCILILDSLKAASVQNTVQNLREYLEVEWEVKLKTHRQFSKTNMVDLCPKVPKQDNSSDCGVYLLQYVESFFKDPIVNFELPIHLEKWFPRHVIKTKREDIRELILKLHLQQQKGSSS

[2] = target: T2, Replicative DNA helicase DnaB (Mycobacterium tuberculosis, UniProt P9WMR3); assay: DnaB intein splicing inhibitors, dose response, biochemical, cell-free fluorescence (AID 449749); format: functional
T2 sequence (P9WMR3 whole entry): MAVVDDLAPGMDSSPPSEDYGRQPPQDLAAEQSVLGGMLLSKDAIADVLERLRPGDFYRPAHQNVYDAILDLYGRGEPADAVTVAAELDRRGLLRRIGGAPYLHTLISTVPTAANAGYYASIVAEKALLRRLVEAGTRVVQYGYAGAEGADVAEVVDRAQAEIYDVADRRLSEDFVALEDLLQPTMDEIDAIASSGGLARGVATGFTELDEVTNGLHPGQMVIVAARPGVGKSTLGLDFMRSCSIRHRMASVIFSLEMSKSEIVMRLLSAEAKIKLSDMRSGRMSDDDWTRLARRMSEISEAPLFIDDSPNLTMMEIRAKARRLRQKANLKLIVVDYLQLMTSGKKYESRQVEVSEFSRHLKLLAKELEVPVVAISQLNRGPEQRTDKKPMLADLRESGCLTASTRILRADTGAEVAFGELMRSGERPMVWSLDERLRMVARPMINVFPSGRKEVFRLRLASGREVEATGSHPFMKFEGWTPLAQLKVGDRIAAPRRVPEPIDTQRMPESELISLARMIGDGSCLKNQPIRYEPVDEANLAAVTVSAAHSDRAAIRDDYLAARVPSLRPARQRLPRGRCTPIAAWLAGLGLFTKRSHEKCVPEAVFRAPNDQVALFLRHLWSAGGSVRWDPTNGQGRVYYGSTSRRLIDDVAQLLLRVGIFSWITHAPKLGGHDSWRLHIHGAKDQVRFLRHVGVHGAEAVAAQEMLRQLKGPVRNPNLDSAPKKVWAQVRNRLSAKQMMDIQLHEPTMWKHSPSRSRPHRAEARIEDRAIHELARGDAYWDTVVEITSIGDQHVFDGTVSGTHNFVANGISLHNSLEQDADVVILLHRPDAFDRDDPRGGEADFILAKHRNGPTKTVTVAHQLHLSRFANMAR

Protein RecA = target: T3, Protein RecA (Mycobacterium tuberculosis, UniProt P9WHJ3); assay: Fluorescence Cell-Free Homogeneous Dose Retest to Identify Inhibitors of RecA-Intein Splicing Activity. [Related pubchem assays (depositor defined):AID2097, AID2223, AID489010, AID492950]; format: functional
T3 sequence (P9WHJ3 whole entry): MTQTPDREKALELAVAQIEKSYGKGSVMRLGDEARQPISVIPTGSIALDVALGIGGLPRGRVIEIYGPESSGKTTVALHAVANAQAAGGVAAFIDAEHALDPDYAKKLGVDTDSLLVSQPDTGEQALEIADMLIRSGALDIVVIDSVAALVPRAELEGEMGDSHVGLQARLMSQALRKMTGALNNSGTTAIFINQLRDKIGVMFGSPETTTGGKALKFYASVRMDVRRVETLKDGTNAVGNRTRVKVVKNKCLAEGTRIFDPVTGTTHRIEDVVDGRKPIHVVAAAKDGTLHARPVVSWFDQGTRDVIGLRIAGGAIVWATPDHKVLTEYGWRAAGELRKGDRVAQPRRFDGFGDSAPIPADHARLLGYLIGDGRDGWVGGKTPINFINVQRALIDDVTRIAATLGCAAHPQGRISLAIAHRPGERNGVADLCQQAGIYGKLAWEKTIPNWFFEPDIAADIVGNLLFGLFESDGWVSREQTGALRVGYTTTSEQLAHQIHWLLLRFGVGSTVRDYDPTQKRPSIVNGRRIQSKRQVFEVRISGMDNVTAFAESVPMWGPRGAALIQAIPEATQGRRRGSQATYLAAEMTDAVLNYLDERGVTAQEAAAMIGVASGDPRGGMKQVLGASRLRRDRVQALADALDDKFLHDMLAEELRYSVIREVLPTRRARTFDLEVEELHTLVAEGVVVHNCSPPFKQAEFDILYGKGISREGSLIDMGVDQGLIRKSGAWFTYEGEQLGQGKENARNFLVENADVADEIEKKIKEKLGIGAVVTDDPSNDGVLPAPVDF

INS1 = assay: beta cell apoptosis inhibitors, cytokine rescue, dose response, luminescence, retest (AID 449756); format: functional, cell-based; details: Rattus norvegicus;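 also: cell death triggered by IL-1 beta plus TNF-alpha plus IFN-gamma mixture; protective hits raise ATP signal compared with cytokine alone wells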

Nc1ccc(N2CCCCC2)c2nonc12
active: IC50 [1] 17.1 µM | AC50 [2] 5.14 µM | EC50 (Protein RecA) 2.76 µM

COc1ccc(NC(=O)/C(Cl)=C(/Cl)[S+]([O-])Cc2ccccc2)cn1 (stereo not given)
active: AC50 [2] 3.35 µM | EC50 (Protein RecA) 3.14 µM | AC50 (INS1) 1.1 µM

Cc1ccc(S(=O)(=O)/N=C2\C=C(Nc3cccc(C(=O)O)c3)C(=O)c3ccccc32)c(C)c1
active: IC50 [1] 3.3 µM | AC50 [2] 27 µM | EC50 (Protein RecA) 15 µM | AC50 (INS1) 6.82 µM
